Assay results reported in patent US12121614B2, “Delayed release composition for peroral administration” (VICORE PHARMA AB, priority 2020, dated 2024).

Assay: Dissolution studies of C21 sodium salt in buffers of different pH
Assay type: physicochemical
Experimental: 50.7 mg of C21 sodium salt (Ardena, Riga, Latvia) was added to 900 mL of 0.09M carbonate buffer (pH 8.95) at a temperature of 37±3° C. with stirring. […] After 15 minutes of stirring, 2M acetic acid solution was added dropwise to provide a pH of 4.52. Evolution CO2 was noted. […] After additional stirring for a further 1.5 hours, 1M NaOH was added to increase pH to 6.8.
51.2 mg of C21 sodium salt was added to 900 mL of acetate buffer (pH 4.4) at the same temperature with stirring. […] After stirring for 1 hour, 1M NaOH solution was added dropwise to increase the pH to 7.2.
53.2 mg of C21 sodium salt was added to 900 mL 0.1M of HCl buffer (pH 1.0) at the same temperature with stirring. […] After 20 minutes of stirring, 1M NaOH solution was added dropwise to increase the pH to 4.5.
51.0 mg of C21 sodium salt was added to 900 mL of 0.1M citrate buffer (pH 4.42) at the same temperature with stirring. The added compound formed a thin slurry. It seemed that nothing had dissolved.
50.8 mg of C21 sodium salt was added to 900 mL of an acetate buffer (pH 4.49) at the same temperature. […] After stirring for 1 hour, a 1M NaOH solution was added dropwise to increase the pH to 6.8.

**Q.** Which results are given for `CCCCOC(=O)[N-]S(=O)(=O)c1sc(CC(C)C)cc1-c1ccc(Cn2ccnc2)cc1.[Na+]` [C21 sodium salt]?
**A.** dissolution behaviour on addition (A) (50.7 mg in 900 mL 0.09M carbonate buffer pH 8.95, 37±3° C., stirring): dissolved instantly; dissolution behaviour on addition (E) (50.8 mg in 900 mL acetate buffer pH 4.49, 37±3° C.): formed a thin slurry which floated on the surface; dissolution behaviour on addition (D) (51.0 mg in 900 mL 0.1M citrate buffer pH 4.42, 37±3° C., stirring): formed a thin slurry. It seemed that nothing had dissolved; dissolution behaviour on addition (B) (51.2 mg in 900 mL acetate buffer pH 4.4, 37±3° C., stirring): formed a thin slurry which was floated on the surface top; dissolution behaviour on addition (C) (53.2 mg in 900 mL 0.1M HCl buffer pH 1.0, 37±3° C., stirring): dissolved instantly; appearance after raising pH (A) ((A) 1M NaOH added to pH 6.8, stirring another 1.5 hours): no significant change in appearance (small white particles); appearance after acidification (A) ((A) 2M acetic acid added to pH 4.52, after stirring for 1 hour): formation of small white particles; appearance after raising pH (B) ((B) after 1 hour, 1M NaOH added to pH 7.2): slurry became thinner and pieces became smaller and goo-like; appearance after further stirring (B) ((B) pH 7.2, stirring another 1.5 hours): no significant change in appearance (small goo-like particles); precipitation after raising pH (C) ((C) after 20 minutes, 1M NaOH added to pH 4.5): no precipitation was observed; appearance after further stirring (C) ((C) pH 4.5, after stirring for 2 hours): solution still was clear; decomposition of C21 by UPLC (D) ((D) citrate buffer pH 4.42, end of the experiment (7 hours)): no decomposition; appearance after further stirring (D) ((D) citrate buffer pH 4.42, stirring for 7 hours): no significant change in appearance; decomposition of C21 by UPLC (E) ((E) acetate buffer pH 4.49 then pH 6.8, end of the experiment): no decomposition; appearance after raising pH (E) ((E) after 1 hour, 1M NaOH added to pH 6.8): slurry became slightly thinner; appearance after further stirring (E) ((E) pH 6.8, stirring another hour): no significant change in appearance
